Our source for the disease control values is patent US11882834B2, “Microbiocidal thiazole derivatives” (SYNGENTA PARTICIPATIONS AG, priority 2017, dated 2024).

For test [1], the system named is Mycosphaerella arachidis (Cercospora arachidicola). Description: Mycosphaerella arachidis (Cercospora arachidicola) / liquid culture (early leaf spot). Type of test: cell-based. Particulars: 200 ppm in the formulation; liquid culture (PDB), growth determined photometrically 4-5 days after application; compared to untreated. On the procedure:
Mycosphaerella arachidis (Cercospora arachidicola)/Liquid Culture (Early Leaf Spot) Conidia of the fungus from cryogenic storage are directly mixed into nutrient broth (PDB potato dextrose broth). After placing a (DMSO) solution of test compound into a microtiter plate (96-well format), the nutrient broth containing the fungal spores is added. The test plates are incubated at 24° C. and the inhibition of growth is determined photometrically 4-5 days after application.

In test [2] the test system is Phaeosphaeria nodorum (Septoria nodorum). Description: Phaeosphaeria nodorum (Septoria nodorum) / wheat / leaf disc preventative (glume blotch). Type of test: in vivo. Particulars: 200 ppm in the formulation, wheat leaf segments cv. Kanzler, compared to untreated, 5-7 days after application. As for the experimental part:
Phaeosphaeria nodorum (Septoria nodorum)/Wheat/Leaf Disc Preventative (Glume Blotch) Wheat leaf segments cv. Kanzler are placed on agar in a multiwell plate (24-well format) and sprayed with the formulated test compound diluted in water. The leaf disks are inoculated with a spore suspension of the fungus 2 days after application. The inoculated test leaf disks are incubated at 20° C. and 75% rh under a light regime of 12 h light/12 h darkness in a climate cabinet and the activity of a compound is assessed as percent disease control compared to untreated when an appropriate level of disease damage appears in untreated check leaf disks (5-7 days after application).

Consider `Cc1sc(Nc2cc(F)nc(F)c2)nc1C(=O)NC1CCC1(C)C` (centres unmarked) [Compound I.r.19, 2-[(2,6-difluoro-4-pyridyl)amino]-N-(2,2-dimethylcyclobutyl)-5-methyl-thiazole-4-carboxamide], for which the disease control result in test [1] and in test [2] was “at least 80%” in each case.
